# Assay results from patent US7855166B2, “Sulfonylamino(thio)carbonyl compounds” (Bayer Cropscience GmbH, priority 2005, dated 2010).
# Tests used:
# [1] = system: weed plants such as Sinapis alba, Echinochloa crus-galli, Lolium multiflorum, Chrysanthemum segetum, Setaria viridis, Abutilon theophrasti, Amaranthus …; test: Post-emergence effect on weeds (greenhouse pot test, visual scoring); type: in vivo; settings: applied post-emergence (three-leaf stage) at a rate of 0.3 kg or less of active substance per hectare; scored after about 3 to 4 weeks in comparison to untreated controls
# [2] = system: weed plants such as Sinapis alba, Chrysanthemum segetum, Avena sativa, Stellaria media, Echinochloa crus-galli, Lolium multiflorum, Setaria viridis, Abutilon …; test: Pre-emergence effect on weeds (greenhouse pot test, visual scoring); type: in vivo; settings: applied pre-emergence at a rate of 0.3 kg or less of active substance per hectare; scored after 3 to 4 weeks in comparison to untreated controls
Structure (SMILES),herbicidal action against weed plants (effect scored visually) [1],herbicidal action against weed plants (visual scoring of plant damage or emergence damage) [2]
COc1nn(C(=O)NS(=O)(=O)c2c(C)cccc2I)c(=O)n1C [Compound 1.037],very good herbicidal action,very good herbidical action
CCCOc1cccc(I)c1S(=O)(=O)NC(=O)n1nc(OC(C)C)n(C)c1=O [Compound 1.236],very good herbicidal action,very good herbidical action
COc1nn(C(=O)NS(=O)(=O)c2c(I)cccc2SC)c(=O)n1C1CC1 [Compound 1.584],very good herbicidal action,very good herbidical action
CCSc1nn(C(=O)NS(=O)(=O)c2c(I)cccc2OC)c(=O)n1C [Compound 1.197],very good herbicidal action,very good herbidical action
CCCOc1nn(C(=O)NS(=O)(=O)c2cc(C)c(C)cc2I)c(=O)n1C1CC1 [Compound 1.868],very good herbicidal action,very good herbidical action
CC(C)Oc1nn(C(=O)NS(=O)(=O)c2cccc(Cl)c2I)c(=O)n1C [Compound 1.831],very good herbicidal action,very good herbidical action
COc1ccc(Cl)c(I)c1S(=O)(=O)NC(=O)n1nc(OC(C)C)n(C)c1=O [Compound 1.819],very good herbicidal action,very good herbidical action
COc1nn(C(=O)NS(=O)(=O)c2cc(C)c(C)cc2I)c(=O)n1C1CC1 [Compound 1.866],very good herbicidal action,very good herbidical action
CCOc1nn(C(=O)NS(=O)(=O)c2c(I)cccc2OCC(F)F)c(=O)n1C1CC1 [Compound 1.511],very good herbicidal action,very good herbidical action
CCCCc1ccc(S(=O)(=O)NC(=O)n2nc(OC(C)C)n(C)c2=O)c(I)c1 [Compound 1.889],very good herbicidal action,very good herbidical action
CCCOc1nn(C(=O)NS(=O)(=O)c2cc(C)c(C)cc2I)c(=O)n1C [Compound 1.864],very good herbicidal action,very good herbidical action
COc1nn(C(=O)NS(=O)(=O)c2c(I)cccc2OS(C)(=O)=O)c(=O)n1C1CC1 [Compound 1.716],very good herbicidal action,very good herbidical action
CCCOc1nn(C(=O)NS(=O)(=O)c2c(I)cccc2OS(=O)(=O)N(C)C)c(=O)n1C1CC1 [Compound 1.756],very good herbicidal action,very good herbidical action
COc1nn(C(=O)NS(=O)(=O)c2c(C)cccc2I)c(=O)n1C1CC1 [Compound 1.042],very good herbicidal action,very good herbidical action
COc1nn(C(=O)NS(=O)(=O)c2c(I)cccc2OS(=O)(=O)N(C)C)c(=O)n1C [Compound 1.749],very good herbicidal action,very good herbidical action
CCOc1cccc(I)c1S(=O)(=O)NC(=O)n1nc(OC)n(C)c1=O [Compound 1.211],very good herbicidal action,very good herbidical action
COc1nn(C(=O)NS(=O)(=O)c2c(I)cccc2C(F)(F)F)c(=O)n1C1CC1 [Compound 1.140],very good herbicidal action,very good herbidical action
CCCCc1ccc(S(=O)(=O)NC(=O)n2nc(OC)n(C)c2=O)c(I)c1 [Compound 1.885],very good herbicidal action,very good herbidical action
CCCOc1nn(C(=O)NS(=O)(=O)c2c(I)cccc2OCC)c(=O)n1C [Compound 1.215],very good herbicidal action,very good herbidical action

Structure (SMILES),herbicidal action against weed plants (effect scored visually) [1],herbicidal action against weed plants (visual scoring of plant damage or emergence damage) [2]
CCCOc1nn(C(=O)NS(=O)(=O)c2c(F)cccc2I)c(=O)n1C [Compound 1.023],very good herbicidal action,very good herbidical action
CCCCOc1cccc(I)c1S(=O)(=O)NC(=O)n1nc(OCC)n(C2CC2)c1=O [Compound 1.279],very good herbicidal action,very good herbidical action
CCOc1nn(C(=O)NS(=O)(=O)c2c(I)cccc2OC(F)(F)F)c(=O)n1C1CC1 [Compound 1.450],very good herbicidal action,very good herbidical action
CCCCOc1cccc(I)c1S(=O)(=O)NC(=O)n1nc(OC)n(C2CC2)c1=O [Compound 1.278],very good herbicidal action,very good herbidical action
CCCOc1nn(C(=O)NS(=O)(=O)c2ccc(CCC)cc2I)c(=O)n1C [Compound 1.878],very good herbicidal action,very good herbidical action
CCOc1nn(C(=O)NS(=O)(=O)c2c(I)cccc2OCC(F)F)c(=O)n1C [Compound 1.504],very good herbicidal action,very good herbidical action
CCCOc1nn(C(=O)NS(=O)(=O)c2c(F)cccc2I)c(=O)n1C1CC1 [Compound 1.028],very good herbicidal action,very good herbidical action
CC(C)Oc1nn(C(=O)NS(=O)(=O)c2c(I)cccc2OCC(F)(F)C(F)(F)F)c(=O)n1C [Compound 1.550],very good herbicidal action,very good herbidical action
COc1nn(C(=O)NS(=O)(=O)c2cccc(Cl)c2I)c(=O)n1C1CC1 [Compound 1.832],very good herbicidal action,very good herbidical action
CCOc1nn(C(=O)NS(=O)(=O)c2c(I)cccc2OCC(C)C)c(=O)n1C [Compound 1.290],very good herbicidal action,very good herbidical action
CCCOc1nn(C(=O)NS(=O)(=O)c2c(I)cccc2OS(C)(=O)=O)c(=O)n1C [Compound 1.713],very good herbicidal action,very good herbidical action
COc1nn(C(=O)NS(=O)(=O)c2cc(C(F)(F)F)ccc2I)c(=O)n1C [Compound 1.835],very good herbicidal action,very good herbidical action
COc1nn(C(=O)NS(=O)(=O)c2ccccc2I)c(=O)n1C1CC1 [Compound 1.008],very good herbicidal action,very good herbidical action
CCCOc1nn(C(=O)NS(=O)(=O)c2ccccc2I)c(=O)n1C1CC1 [Compound 1.014],very good herbicidal action,very good herbidical action
CCCOc1nn(C(=O)NS(=O)(=O)c2c(I)cccc2OC(F)(F)F)c(=O)n1C1CC1 [Compound 1.453],very good herbicidal action,very good herbidical action
COc1nn(C(=O)NS(=O)(=O)c2c(I)cccc2OC(F)(F)F)c(=O)n1C [Compound 1.440],very good herbicidal action,very good herbidical action
Cc1cccc(I)c1S(=O)(=O)NC(=O)n1nc(C2CC2)n(C2CC2)c1=O [Compound 1.815],very good herbicidal action,very good herbidical action
COc1nn(C(=O)NS(=O)(=O)c2c(I)cccc2C(F)(F)F)c(=O)n1C [Compound 1.133],very good herbicidal action,very good herbidical action
CCOc1nn(C(=O)NS(=O)(=O)c2c(I)cccc2OC(C)C)c(=O)n1C [Compound 1.254],very good herbicidal action,very good herbidical action
